Assay results reported in ChEMBL document CHEMBL6103536, “Chemical Space Profiling of SARS-CoV-2 PLpro Using DNA-Encoded Focused Libraries” (ACS Med Chem Lett, 2024).

Key:
[1] = target: Replicase polyprotein 1ab (Severe acute respiratory syndrome coronavirus 2) (UniProt P0DTD1); assay: Inhibition of SARS Cov-2 papain-like protease extracted form Escherichia coli Rosetta (DE3) using fluorogenic substrate RLRGG-AMC assessed as inhibition rate by measuring fluorescent signal at 4 uM incubated for 30 mins relative to control
[2] = target: Replicase polyprotein 1ab (Severe acute respiratory syndrome coronavirus 2, UniProt P0DTD1); assay: Inhibition of SARS Cov-2 papain-like protease extracted form Escherichia coli Rosetta (DE3) using fluorogenic substrate RLRGG-AMC assessed as inhibition rate by measuring fluorescent signal incubated for 30 mins

SMILES	inhibition [1]	IC50 [2]
Cc1ccc(N)cc1C(=O)N[C@H](C)c1cccc(-c2ccc(C=O)s2)c1	30%	–
Cc1ccc(NC2CNC2)cc1C(=O)N[C@H](C)c1cccc(-c2ccc(CN3CC[C@@H](C(=O)O)C3)s2)c1	–	270 nM
COC(=O)[C@@H](CCC(=O)OC(C)(C)C)NCc1ccc(-c2cccc([C@@H](C)NC(=O)c3cc(N)ccc3C)c2)s1 (racemic)	81%	4710 nM
Cc1ccc(NC(=O)c2ccc(Cl)s2)cc1C(=O)N[C@H](C)c1cccc2ccccc12	13%	> 20000 nM
CC[C@@H](C)[C@@H](NC(=O)c1ccc(-c2cccc([C@@H](C)NC(=O)c3cc(N)ccc3C)c2)s1)C(=O)OC	73%	2720 nM
Cc1ccc(N)cc1C(=O)N[C@H](C)c1cccc2ccccc12	68%	–
CCOC(=O)CCCNCc1ccc(-c2cccc([C@@H](C)NC(=O)c3cc(N)ccc3C)c2)s1	Active; Compound Showed Weak Inhibitory Effect	–
Cc1ccc(NC(=O)c2cc(Br)cnc2O)cc1C(=O)N[C@H](C)c1cccc2ccccc12	Active; Compound Showed Weak Inhibitory Effect	–
CCOC(=O)[C@@H]1CCN(Cc2ccc(-c3cccc([C@@H](C)NC(=O)c4cc(NC5CNC5)ccc4C)c3)s2)C1	–	1940 nM
Cc1ccc(NC(=O)Oc2ccc([N+](=O)[O-])cc2)cc1C(=O)N[C@H](C)c1cccc2ccccc12	27%	–
Cc1ccc(NC(=O)c2cccs2)cc1C(=O)N[C@H](C)c1cccc2ccccc12	Active; Compound Showed Weak Inhibitory Effect	–
CCOC(=O)CCCNCc1ccc(-c2cccc([C@@H](C)NC(=O)c3cc(NC4CNC4)ccc3C)c2)s1	–	250 nM
Cc1ccc(NC(=O)c2cccnc2O)cc1C(=O)N[C@H](C)c1cccc2ccccc12	Active; Compound Showed Weak Inhibitory Effect	–
Cc1ccc(NC(=O)c2ccnc(O)c2)cc1C(=O)N[C@H](C)c1cccc2ccccc12	74%	–
COC(=O)Cc1ccc(CNc2ccc(C)c(C(=O)N[C@H](C)c3cccc4ccccc34)c2)cc1	21%	2910 nM
COc1ccc([N+](=O)[O-])c(C(=O)Nc2ccc(C)c(C(=O)N[C@H](C)c3cccc4ccccc34)c2)c1	53%	–
Cc1ccc(NC(=O)c2cc(Br)cnc2Cl)cc1C(=O)N[C@H](C)c1cccc2ccccc12	19%	–
Cc1ccc(NCc2ccc(CC(=O)O)cc2)cc1C(=O)N[C@H](C)c1cccc2ccccc12	Active; Compound Showed Weak Inhibitory Effect	–
C[C@@H](NC(=O)c1cc(N)ccc1O)c1cccc2ccccc12	6%	–
